Reference: patent US8883782B2, “Spiro-tetracyclic ring compounds as beta-secretase modulators and methods of use” (Amgen Inc., priority 2010, dated 2014)
pIC50: −log10 of the molar value. Like-named read-outs stand apart in the source and are kept apart here.

Assays:
[1] = biological target: Beta Secretase enzyme (BACE) (Homo sapiens, UniProt P56817); experiment: In vitro enzymatic BACE FRET (fluorescence resonance energy transfer) assay; assay type: biochemical; details: average IC50, enzyme assay; read-out: BACE 1 FRET assay
Sequence of Beta Secretase enzyme (BACE) (P56817 46-501, species assumed): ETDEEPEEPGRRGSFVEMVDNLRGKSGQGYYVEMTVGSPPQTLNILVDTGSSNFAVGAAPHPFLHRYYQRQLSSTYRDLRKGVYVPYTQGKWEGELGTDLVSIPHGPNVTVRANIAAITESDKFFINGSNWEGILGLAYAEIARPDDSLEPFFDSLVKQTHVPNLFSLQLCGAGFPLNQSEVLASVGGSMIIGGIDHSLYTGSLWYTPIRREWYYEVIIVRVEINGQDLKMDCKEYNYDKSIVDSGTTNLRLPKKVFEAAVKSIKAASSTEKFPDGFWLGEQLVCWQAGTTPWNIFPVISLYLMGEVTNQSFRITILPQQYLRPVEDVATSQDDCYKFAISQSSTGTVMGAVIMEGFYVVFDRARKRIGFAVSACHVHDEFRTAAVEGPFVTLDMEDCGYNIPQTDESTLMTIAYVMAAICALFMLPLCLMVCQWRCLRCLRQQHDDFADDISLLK
In short: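 Fluorescence read after Tris quench to neutral pH. Reaction: 50 nM fluorophore/quencher peptide substrate, 1 h, in 0.05 M acetate pH 4.2, 10% DMSO final, 100 uM genapol.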

[2] = test system: Aβ40 in conditioned medium of cells stably expressing Amyloid Precursor Protein (APP); experiment: In vitro BACE cell-based assay (Aβ40 in conditioned medium, sandwich ELISA); details: Homo sapiens, read-out: HEK cell assay
In short: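 The sandwich ELISA pairs pAb40 capture (3 h, 4 °C) with 6E10 detection (2 h, 4 °C) and a streptavidin-europium TRF read-out. Supernatants come from APP-expressing cells grown in 10% FBS DMEM.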

[3] = HEK293, average IC50, HEK cells

pIC50 [1] | pIC50 [2, 3] | pIC50 ([2]; HEK293, average IC50) | Structure (SMILES)
8.66 | 7.49 |  | NC1=N[C@@]2(CS1)c1cc(-c3ccc(F)nc3)ccc1Oc1ncc(C3=CCOCC3)cc12 [Example 966, (5S)-3-(3,6-dihydro-2H-pyran-4-yl)-7-(6-fluoro-3-pyridinyl)spiro[chromeno[2,3-b]pyridine-5,4′-[1,3]thiazol]-2′-amine]
7.35 | 6.33 |  | NC1=N[C@@]2(CO1)c1cc(OCc3ccccc3)ccc1Oc1ncc(C3=CCOCC3)cc12 [Example 967, (5S)-7-(benzyloxy)-3-(3,6-dihydro-2H-pyran-4-yl)spiro[chromeno[2,3-b]pyridine-5,4′-[1,3]oxazol]-2′-amine]
5.90 | ≤ 5.00 |  | C1=C(c2cnc3c(c2)[C@]2(COC(NCc4ccccc4)=N2)c2cc(OCc4ccccc4)ccc2O3)CCOC1 [Example 968, (5S)-N-benzyl-7-(benzyloxy)-3-(3,6-dihydro-2H-pyran-4-yl)spiro[chromeno[2,3-b]pyridine-5,4′-[1,3]oxazol]-2′-amine]
6.08 | ≤ 5.00 |  | NC1=N[C@@]2(CO1)c1cc(O)ccc1Oc1ncc(C3=CCOCC3)cc12 [Example 969, (5S)-2′-amino-3-(3,6-dihydro-2H-pyran-4-yl)spiro[chromeno[2,3-b]pyridine-5,4′-[1,3]oxazol]-7-ol]
6.95 | 6.34 |  | NC1=N[C@@]2(CO1)c1cc(OCc3ccncc3)ccc1Oc1ncc(C3=CCOCC3)cc12 [Example 970, (5S)-3-(3,6-dihydro-2H-pyran-4-yl)-7-(4-pyridinylmethoxy)spiro[chromeno[2,3-b]pyridine-5,4′-[1,3]oxazol]-2′-amine]
7.47 |  | 6.81 | NC1=N[C@@]2(CO1)c1cc(OCc3cccnc3)ccc1Oc1ncc(C3=CCOCC3)cc12 [Example 971, (5S)-3-(3,6-dihydro-2H-pyran-4-yl)-7-(3-pyridinylmethoxy)spiro[chromeno[2,3-b]pyridine-5,4′-[1,3]oxazol]-2′-amine]
7.05 |  | 6.20 | NC1=N[C@@]2(CO1)c1cc(OCc3ccccn3)ccc1Oc1ncc(C3=CCOCC3)cc12 [Example 972, (5S)-3-(3,6-dihydro-2H-pyran-4-yl)-7-(2-pyridinylmethoxy)spiro[chromeno[2,3-b]pyridine-5,4′-[1,3]oxazol]-2′-amine]
6.73 |  | 5.86 | CC1(C#Cc2cnc3c(c2)[C@]2(COC(N)=N2)c2cc(OCc4ccccc4)ccc2O3)COC1 [Example 973, (5S)-7-(benzyloxy)-3-((3-methyl-3-oxetanyl)ethynyl)spiro[chromeno[2,3-b]pyridine-5,4′-[1,3]oxazol]-2′-amine]
6.96 |  | 5.56 | NC1=N[C@@]2(CO1)c1cc(OCc3cccnc3)ccc1Oc1ncc(-c3ccnc(F)c3)cc12 [Example 974, (5S)-3-(2-fluoro-4-pyridinyl)-7-(3-pyridinylmethoxy)spiro[chromeno[2,3-b]pyridine-5,4′-[1,3]oxazol]-2′-amine]
6.94 |  | 5.97 | NC1=N[C@@]2(CO1)c1cc(OCc3cccnc3)ccc1Oc1ncc(-c3cccnc3)cc12 [Example 975, (5S)-3-(3-pyridinyl)-7-(3-pyridinylmethoxy)spiro[chromeno[2,3-b]pyridine-5,4′-[1,3]oxazol]-2′-amine]
5.42 |  | ≤ 5.00 | NC1=N[C@@]2(CO1)c1cc(OCc3cccnc3)ccc1Oc1ncc(Br)cc12 [Example 976, (5S)-3-bromo-7-(3-pyridinylmethoxy)spiro[chromeno[2,3-b]pyridine-5,4′-[1,3]oxazol]-2′-amine]
7.28 |  | 6.37 | Cc1ccc(-c2cnc3c(c2)[C@]2(COC(N)=N2)c2cc(OCc4cccnc4)ccc2O3)cn1 [Example 977, (5S)-3-(6-methyl-3-pyridinyl)-7-(3-pyridinylmethoxy)spiro[chromeno[2,3-b]pyridine-5,4′-[1,3]oxazol]-2′-amine]
7.29 |  | 6.48 | NC1=N[C@@]2(CO1)c1cc(OCc3ccccc3Br)ccc1Oc1ncc(-c3cccnc3)cc12 [Example 978, (5S)-7-((2-bromobenzyl)oxy)-3-(3-pyridinyl)spiro[chromeno[2,3-b]pyridine-5,4′-[1,3]oxazol]-2′-amine]
9.22 |  | 7.64 | NC1=N[C@@]2(CO1)c1cc(OCc3cccc(Br)c3)ccc1Oc1ncc(-c3cccnc3)cc12 [Example 979, (5S)-7-((3-bromobenzyl)oxy)-3-(3-pyridinyl)spiro[chromeno[2,3-b]pyridine-5,4′-[1,3]oxazol]-2′-amine]
7.34 |  | 6.47 | NC1=N[C@@]2(CO1)c1cc(OCc3ccc(Br)cc3)ccc1Oc1ncc(-c3cccnc3)cc12 [Example 980, (5S)-7-((4-bromobenzyl)oxy)-3-(3-pyridinyl)spiro[chromeno[2,3-b]pyridine-5,4′-[1,3]oxazol]-2′-amine]
7.65 |  | 6.58 | NC1=N[C@@]2(CO1)c1cc(OCCCc3ccccc3)ccc1Oc1ncc(-c3cccnc3)cc12 [Example 981, (5S)-7-(3-phenylpropoxy)-3-(3-pyridinyl)spiro[chromeno[2,3-b]pyridine-5,4′-[1,3]oxazol]-2′-amine]

More lines, now with the values behind:

Structure (SMILES) | pIC50 [1] | pIC50 [2, 3] | pIC50 ([2]; HEK293, average IC50)
CC#Cc1cnc(F)c(-c2ccc3c(c2)[C@@]2(COC(N)=N2)c2cc(C4=CCOCC4)cnc2O3)c1 [Example 953, (5S)-3-(3,6-dihydro-2H-pyran-4-yl)-7-(2-fluoro-5-(1-propyn-1-yl)-3-pyridinyl)spiro[chromeno[2,3-b]pyridine-5,4′-[1,3]oxazol]-2′-amine] | 9.52 | 8.40 | 
CC#Cc1cnc(F)c(-c2ccc3c(c2)[C@@]2(COC(N)=N2)c2cc(-c4cnn(C)c4)cnc2O3)c1 [Example 954, (5S)-7-(2-fluoro-5-(1-propyn-1-yl)-3-pyridinyl)-3-(1-methyl-1H-pyrazol-4-yl)spiro[chromeno[2,3-b]pyridine-5,4′-[1,3]oxazol]-2′-amine] | 9.52 | 8.52 | 
CC#Cc1cnc(F)c(-c2ccc3c(c2)[C@@]2(COC(N)=N2)c2cc(C#CC4(C)COC4)cnc2O3)c1 [Example 955, (5S)-7-(2-fluoro-5-(1-propyn-1-yl)-3-pyridinyl)-3-((3-methyl-3-oxetanyl)ethynyl)spiro[chromeno[2,3-b]pyridine-5,4′-[1,3]oxazol]-2′-amine] | 9.30 | 8.70 | 
CC#Cc1cnc(F)c(-c2ccc3c(c2)[C@@]2(COC(N)=N2)c2cc(-c4ccnc(F)c4)cnc2O3)c1 [Example 956, (5S)-7-(2-fluoro-5-(1-propyn-1-yl)-3-pyridinyl)-3-(2-fluoro-4-pyridinyl)spiro[chromeno[2,3-b]pyridine-5,4′-[1,3]oxazol]-2′-amine] | 9.40 | 8.22 | 
CC1(C#Cc2cc3c(cn2)Oc2ccc(-c4c(F)ccnc4F)cc2[C@@]32COC(N)=N2)COC1 [Example 957, (5S)-7-(2,4-difluoro-3-pyridinyl)-3-((3-methyl-3-oxetanyl)ethynyl)spiro[chromeno[2,3-c]pyridine-5,4′-[1,3]oxazol]-2′-amine] | 8.92 | 7.48 | 
Cc1ccc(-c2cnc3c(c2)[C@]2(CSC(N)=N2)c2cc(-c4cccnc4)ccc2O3)cn1 [Example 958, (5S)-3-(6-methyl-3-pyridinyl)-7-(3-pyridinyl)spiro[chromeno[2,3-b]pyridine-5,4′-[1,3]thiazol]-2′-amine] | 8.82 | 7.72 | 
NC1=N[C@@]2(CS1)c1cc(-c3cccnc3)ccc1Oc1ncc(C3=CCCOC3)cc12 [Example 959, (5S)-3-(5,6-dihydro-2H-pyran-3-yl)-7-(3-pyridinyl)spiro[chromeno[2,3-b]pyridine-5,4′-[1,3]thiazol]-2′-amine] | 9.00 | 7.89 | 
Cn1cc(-c2cnc3c(c2)[C@]2(CSC(N)=N2)c2cc(-c4cccnc4)ccc2O3)cn1 [Example 960, (5S)-3-(1-methyl-1H-pyrazol-4-yl)-7-(3-pyridinyl)spiro[chromeno[2,3-b]pyridine-5,4′-[1,3]thiazol]-2′-amine] | 8.43 | 7.44 | 
CC1(C#Cc2cnc3c(c2)[C@]2(CSC(N)=N2)c2cc(-c4ccc(F)nc4)ccc2O3)COC1 [Example 961, (5S)-7-(6-fluoro-3-pyridinyl)-3-((3-methyl-3-oxetanyl)ethynyl)spiro[chromeno[2,3-b]pyridine-5,4′-[1,3]thiazol]-2′-amine] | 9.00 | 7.74 | 
Cn1cc(-c2cnc3c(c2)[C@]2(CSC(N)=N2)c2cc(-c4ccc(F)nc4)ccc2O3)cn1 [Example 962, (5S)-7-(6-fluoro-3-pyridinyl)-3-(1-methyl-1H-pyrazol-4-yl)spiro[chromeno[2,3-b]pyridine-5,4′-[1,3]thiazol]-2′-amine] | 8.27 | 7.19 | 
NC1=N[C@@]2(CS1)c1cc(-c3ccc(F)nc3)ccc1Oc1ncc(Br)cc12 [Example 963, (5S)-3-bromo-7-(6-fluoro-3-pyridinyl)spiro[chromeno[2,3-b]pyridine-5,4′-[1,3]thiazol]-2′-amine] | 7.36 | 6.08 | 
CC1(C#Cc2cnc3c(c2)[C@]2(CSC(N)=N2)c2cc(-c4cncc(F)c4)ccc2O3)COC1 [Example 964, (5S)-7-(5-fluoro-3-pyridinyl)-3-((3-methyl-3-oxetanyl)ethynyl)spiro[chromeno[2,3-b]pyridine-5,4′-[1,3]thiazol]-2′-amine] | 9.05 | 7.82 | 
NC1=N[C@@]2(CS1)c1cc(-c3cncc(F)c3)ccc1Oc1ncc(Br)cc12 [Example 965, (5S)-3-bromo-7-(5-fluoro-3-pyridinyl)spiro[chromeno[2,3-b]pyridine-5,4′-[1,3]thiazol]-2′-amine] | 7.63 | 6.11 | 
